“Also recorded” adds a separate entry of the source.

Data on one molecule can be found in patent publication US8785402B2, “Compositions and assays for treatment and diagnosis of helicobacter pylori infection and conditions” (Academia Sinica, priority 2009, dated 2014).

Test [1] relates to Le^x antigen in H. pylori. In words: Anti-Le^x immunoblot of H. pylori lysates after co-culture with Capan 1 cells. Format: cell-based, Helicobacter pylori. As for the experimental part:
(§1) FIGS. 11A-11D collectively show immunoblot analysis of H. pylori-infected Capan 1 and AGS cells with mouse monoclonal anti-Le^x antigen. Capan 1 and AGS cells were infected with different H. pylori strains (from DU-152 to DU-157) that were clinical isolates from six different patients with duodenal ulcer (DU). PBS represents a negative control in the absence of H. pylori. The co-culture was maintained for 12 h at an MOI of ˜400:1. In the parallel experiments, Capan 1 (11a) and AGS cells (11c) were infected under the same conditions. The effect of α-L-fucosidase was evaluated by addition of 100 μM FNJ to the co-cultures of Capan 1 (11b) and AGS cells (11d) with various H. pylori strains. The bacterial cells were collected and lysed for Le^x analysis.
(§2) The secretion of FUCA2 directly results in the extracellular production of L-fucose residues that are then incorporated into H. pylori. It is important to determine if the L-fucose-related biosynthesis is affected at the same time. […] The H. pylori cell lysates were analyzed by SDS-PAGE 12 h after infection and immunoblotted with a Le^x-specific monoclonal antibody. […] In contrast, Le^x-containing glycoproteins were detected in substantial amounts without FNJ treatment (FIGS. 11A and 11C, corresponding to H. pylori-infected Capan 1 and AGS cells, respectively).
(In western blotting, separated proteins are transferred to a membrane and probed.)

The subject of test [2] is H. pylori-infected Capan 1 cells. In words: Immunoblot of translocated CagA (adhesion efficiency of H. pylori) in infected Capan 1 cells. In kind it is cell-based, human. Particulars: Capan 1, 100 μM FNJ. How it is done: (§3) FIG. 8A-8D collectively provide immunoblot analysis of epithelial cells infected with H. pylori using mouse monoclonal anti-CagA. Capan 1 and AGS cells were infected with different H. pylori strains, including CagA^+ and CagA^−, and various clinical isolates from patients with gastritis (GS), duodenal ulcer (DU) and gastric cancer (GC). PBS represents the negative control. The co-culture was maintained for 6-8 h at an MOI of ˜200:1. In the parallel experiments, Capan 1 (a) and AGS cells (c) were infected under the same conditions. The effect of α-L-fucosidase was evaluated by addition of 100 μM FNJ to the co-cultures of Capan 1 (b) and AGS cells (d) with various H. pylori strains.
(§4) FIG. 9 illustrates immunoblot analysis of H. pylori-infected epithelial cells with mouse monoclonal anti-CagA. Capan 1 and AGS cells were infected with different H. pylori strains that were clinical isolates from five different patients with duodenal ulcer (DU). PBS was used as a negative control in the absence of H. pylori. The co-culture was maintained for 6-8 h at an MOI of ˜200:1. […] The effect of α-L-fucosidase was evaluated by addition of 100 μM of the α-L-fucosidase inhibitor, FNJ, to co-cultures of Capan 1 (b) and AGS cells (d) with the indicated H. pylori strains. […]
(§5) CagA of H. pylori was the first reported bacterial virulence protein translocated by a type IV secretion system (Stein, et al., Proc. Natl. Acad. Sci. USA 2000, 97:1263-1268). Translocated CagA protein can be detected inside host cells soon after H. pylori attachment. The adhesion efficiency of H. pylori can be thus measured by monitoring the level of translocated CagA inside host cells. […] The epithelial cell lysates were analyzed by SDS-PAGE 6-8 h after infection and immunoblotted with a CagA-specific monoclonal antibody. CagA (˜140 kDa) was detected when mock-transfected Capan 1 cells were infected with each different H. pylori strain (FIG. 7B). Nonetheless, CagA was not detected upon Capan 1-FUCA2 K.D. infection with the different H. pylori strains, with the exception of GS (FIG. 7C). […]

Test [3] concerns H. pylori-infected AGS cells. In words: Immunoblot of translocated CagA (adhesion efficiency of H. pylori) in infected AGS cells. Format: cell-based, human. Particulars: 100 μM FNJ. How it is done:
as §3, §4, §5

The test system of test [4] is Le^x antigen in H. pylori. In words: Anti-Le^x immunoblot of H. pylori lysates after co-culture with AGS cells. In kind it is cell-based, Helicobacter pylori. Particulars: 100 μM FNJ, DU-152 to DU-157, 12 h, MOI ~400:1. As for the experimental part: as §1, §2
The test system of another test is human FUT3 and FUT6. Kind of test: Anti-Fut 3/6 immunoblot of Capan 1 cells infected with H. pylori. Format: cell-based. Particulars: Capan 1 cells pre-treated with H. pylori and 50 nM FNJ for 4 h. How it is done:
Lane A, extract of Capan 1 cells. Lane B, extract of Capan 1 cells pre-treated with H. pylori for 4 h. Lanes C, C′, duplicate independent experiments of extract of Capan 1 cells pre-treated with H. pylori and 50 nM of the α-L-fucosidase inhibitor, FNJ, for 4 h.
L-Fucose is a likely source of utilizable carbon and energy because it is located at the termini of mammalian glycoconjugates. L-Fucose is an abundant component of many host gastric mucosa glycoconjugates (Madrid, et al., J. Histochem. Cytochem 1998, 46:1311-1320) that are constitutively synthesized by host cells. Thus, the “request” from H. pylori to manufacture fucosylated glycans may require the host to activate translation of one or more of its fucosyltransferase proteins.

Test [5] relates to H. pylori-infected Capan 1 cells. In words: Transfer of 6-azido-L-fucose from Capan 1 host cells to H. pylori. Format: cell-based, human. Particulars: Capan 1, 100 μM FNJ.
Description: (§6) A considerable proportion of H. pylori in the stomach is located at the epithelial mucosa (Schreiber S, et al. Proc. Natl. Acad. Sci. USA 2004, 101:5024-5029) where there are various fucose-containing oligosaccharides including Lewis antigens. To determine if H. pylori acquires L-fucose from host cells, similar to the interaction between B. thetaiotaomicron and small intestine cells (Hooper, et al. Proc. Natl. Acad. Sci. USA 1999, 96:9833-9838), the click chemistry-based fluorogenic labeling method developed by Wong and coworkers (Sawa M, et al. Proc. Natl. Acad. Sci. USA 2006, 103:12371-12376) was applied to detect fucosylated glycoconjugates. […]
as §5, with “7B).” for “7B). Nonetheless, CagA was not detected upon Capan 1-FUCA2 K.D. infection with the different H. pylori strains, with the exception of GS (FIG. 7C).”

Another test relates to H. pylori. Kind of test: Adherence of H. pylori to host cells on treatment of infected cells. Format: cell-based, Helicobacter pylori. Particulars: summary statement; host cells not specified. From the text: CagA of H. pylori was the first reported bacterial virulence protein translocated by a type IV secretion system (Stein, et al., Proc. Natl. Acad. Sci. USA 2000, 97:1263-1268). Translocated CagA protein can be detected inside host cells soon after H. pylori attachment. The adhesion efficiency of H. pylori can be thus measured by monitoring the level of translocated CagA inside host cells. Four different epithelial cell lines were chosen for the study, namely mock-transfected Capan 1, Capan 1-FUCA2 K.D., Capan 1, and AGS cells. Isogenic vacA (CagA+), cagA (CagA−) mutants, and clinical isolates from patients with gastritis (GS), duodenal ulcer (DU), and gastric cancer (GC) were selected for co-culturing with the four epithelial cell lines. The epithelial cell lysates were analyzed by SDS-PAGE 6-8 h after infection and immunoblotted with a CagA-specific monoclonal antibody. CagA (˜140 kDa) was detected when mock-transfected Capan 1 cells were infected with each different H. pylori strain (FIG. 7B). Nonetheless, CagA was not detected upon Capan 1-FUCA2 K.D. infection with the different H. pylori strains, with the exception of GS (FIG. 7C). […] In contrast, CagA was detected in substantial amounts without FNJ treatment (FIGS. 8A and 8C, corresponding to the results of Capan 1 and AGS cells, respectively).

In test [6] the test system is H. pylori-infected AGS cells. In words: Transfer of 6-azido-L-fucose from AGS host cells to H. pylori. In kind it is cell-based, human. Particulars: 100 μM FNJ.
Description: as §6
as §5, with “7B).” for “7B). Nonetheless, CagA was not detected upon Capan 1-FUCA2 K.D. infection with the different H. pylori strains, with the exception of GS (FIG. 7C).”

Setting [7] is: DU strains DU-152, DU-153, DU-154, DU-155, DU-157.
Setting [8] is: DU- or GC-specific H. pylori strains, 6-8 h, MOI ~200:1.
The mark [9] stands for this setting: GS-specific H. pylori strain, 6-8 h.

Regarding `CC1NC(CN)C(O)C(O)C1O` (stereo not shown) [FNJ, 1-aminomethyl-1-deoxy-fuconojirimycin], the “Le^x-expression level in H. pylori” value is “considerably reduce; also recorded: significantly less” in test [1] (Capan 1, 100 μM FNJ, DU-152 to DU-157, 12 h, MOI ~400:1) and “considerably reduce; also recorded: significantly less” in test [4]. The “level of Le^x-containing glycoproteins in H. pylori” value in test [1] (summary statement, host cells not specified) is reported as “significantly reduced”. Also, the “CagA present in host cells” value in test [2] (setting [7]) and in test [3] (setting [7]) was “no longer present” each time. The entries for the “CagA detected in host cells” value in test [2] (setting [8]) and in test [3] (setting [8]) were “no or little CagA was detected” and “consistent with those obtained in AGS cells”, respectively. Moreover, the “level of CagA” value in test [2] (setting [9]) and in test [3] (setting [9]) was “not affected” each time. Also, in the test with human FUT3 and FUT6, the “expression of human FUT3 and FUT6” value was “decreased substantially”. Further, the “transfer of 6-azido-L-fucose from host cells to H. pylori” value in test [5] and in test [6] was “considerably reduce” each time. Also, the “adherence of H. pylori to host cells” value in the test on H. pylori is reported as “effectively prevented adherence”.
